PubChem BioAssay (NCI)
Values joined by “and” are separate entries in the source; they are usually repeats but may differ in a detail not shown here. Equal values may be shown once.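 Test compounds were applied to cells in 96-well plates for 48 hours at 5 doses. At the GI50, growth is halved. TGI: concentration producing complete growth inhibition.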

What was measured:
Experiment in all cases: inhibition of tumour cell growth, NCI panel, 48 h
[1] = tested on: HCC-2998 colon
[2] = tested on: HL-60(TB) leukemia
[3] = tested on: SN12C renal
[4] = tested on: HS 578T breast
[5] = tested on: UO-31 renal
[6] = tested on: HT29 colon
[7] = tested on: COLO 205 colon
[8] = tested on: NCI/ADR-RES ovarian
[9] = tested on: SK-MEL-2 melanoma
[10] = tested on: OVCAR-5 ovarian

CC([C@H]1CCC2C3CCC4C[C@@H](NC=O)CC[C@]4(C)C3CC[C@@]21C)N(C)C (some centres not stated)
GI50 [1]: 2.48 µM
TGI [1]: 7.29 µM
GI50 [2]: 2.23 µM
TGI [2]: 6.79 µM
GI50 [3]: 2.88 µM
TGI [3]: 13.7 µM
GI50 [4]: 2.69 µM
TGI [4]: 12 µM
GI50 [5]: 1.49 µM
TGI [5]: 3.12 µM
GI50 [6]: 0.595 µM
TGI [6]: 2.42 µM
GI50 [7]: 1.54 µM
TGI [7]: 3.11 µM
GI50 [8]: 6.02 µM
TGI [8]: 21.4 µM
GI50 [9]: 5.71 µM
TGI [9]: 13.8 µM
GI50 [10]: 6.87 µM
TGI [10]: 19.3 µM

O=C1/C(=C/c2ccc(O)c([N+](=O)[O-])c2)CCC/C1=C\c1ccc(O)c([N+](=O)[O-])c1
TGI [1]: 16 µM
GI50 [2]: 16.7 µM
TGI [2]: 50 µM and 45.1 µM
GI50 [3]: 46.2 µM
TGI [3]: 26.2 µM and > 100 µM
TGI [4]: 60.3 µM
GI50 [5]: 20.7 µM
TGI [5]: 25.5 µM and 39.5 µM
GI50 [6]: 19 µM
TGI [6]: 30.7 µM and 37.6 µM
GI50 [7]: 20.8 µM
TGI [7]: 31.9 µM and 40.6 µM
GI50 [8]: 16.3 µM
TGI [8]: 50 µM and 41.7 µM
GI50 [9]: 13 µM
TGI [9]: 32.2 µM and 27.2 µM
GI50 [10]: 21.9 µM
TGI [10]: 33.8 µM and 39.5 µM

CC(C)(C)C(=O)Nc1ccccc1I(=O)=O
GI50 [1]: > 100 µM
TGI [1]: > 100 µM
GI50 [2]: > 100 µM
TGI [2]: > 100 µM
GI50 [3]: > 100 µM
TGI [3]: > 100 µM
GI50 [4]: > 100 µM
TGI [4]: > 100 µM
GI50 [5]: > 100 µM
TGI [5]: > 100 µM
GI50 [6]: > 100 µM
TGI [6]: > 100 µM
GI50 [7]: > 100 µM
TGI [7]: > 100 µM
GI50 [8]: > 100 µM
TGI [8]: > 100 µM
GI50 [9]: > 100 µM
TGI [9]: > 100 µM
GI50 [10]: > 100 µM
TGI [10]: > 100 µM

Nc1ccc(C(=O)c2ccc(N)c(Br)c2)cc1Br
GI50 [1]: 0.381 µM
TGI [1]: 4.65 µM
GI50 [2]: 0.326 µM
TGI [2]: 2.8 µM
GI50 [3]: 0.903 µM
TGI [3]: > 100 µM
GI50 [4]: 0.345 µM
GI50 [5]: 0.734 µM
TGI [5]: 34 µM
GI50 [6]: 0.335 µM
TGI [6]: 1.18 µM
GI50 [7]: 0.393 µM
TGI [7]: 2.2 µM
GI50 [8]: 0.348 µM
TGI [8]: > 46.2 µM
GI50 [9]: 0.435 µM
TGI [9]: 3.99 µM
GI50 [10]: 0.701 µM
TGI [10]: > 100 µM

COc1ccc(C2=NN(C(=O)COc3ccc(Cl)cc3)C(O)(c3cc(F)c(Cl)cc3Cl)C2)cc1OC (configuration not stated)
GI50 [1]: 3.91 µM
TGI [1]: 13.3 µM
GI50 [2]: 2.68 µM
TGI [2]: 7.86 µM
GI50 [3]: 3.65 µM
TGI [3]: 13.3 µM
GI50 [4]: 4.5 µM
TGI [4]: 13.4 µM
GI50 [5]: 2.08 µM
TGI [5]: 5.14 µM
GI50 [6]: 1.51 µM
TGI [6]: 3.24 µM
GI50 [7]: 1.63 µM
TGI [7]: 3.41 µM
GI50 [8]: 2.94 µM
TGI [8]: 8.73 µM
GI50 [9]: 1.11 µM
TGI [9]: 3.24 µM
GI50 [10]: 5.91 µM
TGI [10]: 13.3 µM

C=C1C[C@@H]2C/C=C/C(=O)C/C(C)=C\C=C\C(=O)O[C@H](C=O)C/C(C)=C/[C@H](C1)O2
GI50 [1]: 0.77 µM
TGI [1]: 3.32 µM
GI50 [2]: 0.243 µM
TGI [2]: 0.781 µM
GI50 [3]: 0.697 µM
TGI [3]: 20.4 µM
GI50 [4]: 4.23 µM
TGI [4]: > 65.1 µM
GI50 [5]: 3.33 µM
TGI [5]: 56.4 µM
GI50 [6]: 0.281 µM
TGI [6]: 12.6 µM
GI50 [7]: 0.885 µM
TGI [7]: 17.7 µM
GI50 [8]: 2.58 µM
TGI [8]: > 100 µM
GI50 [9]: 6.1 µM
TGI [9]: 34.9 µM
GI50 [10]: 2.31 µM
TGI [10]: 13.5 µM

O=C(/C=C/C=C/c1ccccc1)CCc1ccccc1
TGI [1]: > 100 µM
TGI [2]: 53 µM
TGI [3]: > 100 µM
TGI [4]: > 100 µM
TGI [5]: > 100 µM
TGI [6]: > 100 µM
TGI [7]: > 100 µM
TGI [8]: > 100 µM
TGI [9]: > 100 µM
TGI [10]: > 100 µM

Cc1cc(C)c(O)c(CNCCCCCCNCc2cc(C)cc(C)c2O)c1
GI50 [1]: 1.02 µM
TGI [1]: 2.39 µM
GI50 [2]: 1.84 µM
TGI [2]: 3.77 µM
GI50 [3]: 1.83 µM
TGI [3]: 3.92 µM
GI50 [4]: 1.65 µM
TGI [4]: 3.88 µM
GI50 [5]: 1.42 µM
TGI [5]: 2.83 µM
GI50 [6]: 1.73 µM
TGI [6]: 3.82 µM
GI50 [7]: 1.67 µM
TGI [7]: 3.32 µM
GI50 [8]: 1.85 µM
TGI [8]: 3.86 µM
GI50 [9]: 1.91 µM
TGI [9]: 3.67 µM
GI50 [10]: 1.82 µM
TGI [10]: 4.31 µM

COc1c(C)c2c(c(O)c1C/C=C(\C)CCC(=O)OCCN1CCOCC1)C(=O)OC2
GI50 [1]: 0.39 µM
TGI [1]: > 100 µM
GI50 [2]: 1.12 µM
TGI [2]: > 100 µM
GI50 [3]: 0.448 µM
TGI [3]: > 100 µM
GI50 [4]: 7 µM
TGI [4]: > 100 µM
GI50 [5]: 0.599 µM
TGI [5]: > 100 µM
GI50 [6]: 0.552 µM
TGI [6]: > 100 µM
GI50 [7]: 0.692 µM
TGI [7]: > 100 µM
GI50 [8]: 0.471 µM
TGI [8]: > 100 µM
GI50 [9]: 33.6 µM
TGI [9]: > 100 µM
GI50 [10]: 2.09 µM
TGI [10]: > 100 µM
